Measured values: publication PMC9833666, “Designing and identifying β-hairpin peptide macrocycles with antibiotic potential” (Science Advances, 2023)
Read-outs that look alike come from different tables or passages of the source. Bridge positions count the residues as written; N and C are the ends. Ends that are not written are not given here. Peptide text beside a SMILES is read from it.

Experiments:
[1] = tested on: Acinetobacter baumannii AB5075; conditions: for AB5075 MIC FBS: 100% fetal bovine serum; for AB5075 MIC MH: Mueller-Hinton
Procedure: MICs were performed by a modifiedClinical and Laboratory Standards Institute) procedure. […] Separately, E. coli W3110 or A. baumannii AB5075 was grown overnight in 5 ml of standard MH at 37°C. Cells from these cultures were diluted to a concentration of 5 × 10^5 to 6 × 10^5 cells/ml in either standard MH, MHII, RPMI, or fetal bovine serum, and 90 μl was added to each well of the 96-well plate containing diluted peptide. Plates were wrapped twice in parafilm and incubated at 37°C for 18 to 24 hours. Wells were examined by eye against wells with no bacteria for signs of growth. MICs were reported as the minimum concentration with no observable growth. In cases where triplicate samples differed, the concentration supported by the median of the three replicates was reported. […]
For consistency, all SynCH peptides were resuspended at 10 mg/ml in water. Peptides were then visually inspected for any lack of solubility (Data File S1). […]
We had this library commercially synthesized and tested its ability to inhibit the growth of Acinetobacter baumannii AB5075, a clinically isolated Carbapenem Resistant Acinetobacter (CRA) pathogen. MICs were performed in MH as well as 100% FBS, which is likely more representative of the in vivo environment. […]

[2] = tested on: Single-donor human red blood cells; assay: Hemolysis assay; type: cell-based; conditions: for Fold Change Hemolysis: hemolysis at 128 µg/ml, fold change relative to SySA-5
Method in brief: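 Peptides at 300 μg/ml (SySA library) or 128 μg/ml (SySA-5 optimization library) were incubated in triplicate with washed single-donor RBCs (1 × 10^9 cells/ml) for 3 h at 37 °C. Supernatant A540 was background-normalized to PBS and expressed relative to 1% Triton X-100 (100% hemolysis).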

[3] = tested on: Escherichia coli W3110; type: cell-based; conditions: for Ec W3110 MIC MH: E. coli W3110, MH medium; for Ec W3110 MIC RPMI: E. coli W3110, RPMI medium

Row | Compound | AB5075 MIC FBS ([1]; replicate 1) [µg/mL] | AB5075 MIC FBS ([1]; replicate 2) [µg/mL] | AB5075 MIC FBS ([1]; replicate 3) [µg/mL] | AB5075 MIC MH ([1]; replicate 1) [µg/mL] | AB5075 MIC MH ([1]; replicate 2) [µg/mL] | AB5075 MIC MH ([1]; replicate 3) [µg/mL] | Fold Change Hemolysis [2] | AB5075 MIC FBS ([1]; median of triplicate) [µg/mL] | AB5075 MIC MH ([1]; median of triplicate) [µg/mL] | Ec W3110 MIC MH [3] [µg/mL] | Ec W3110 MIC RPMI [3] [µg/mL] | hemolysis [2] [%]
1 | CC(C)C[C@@H]1NC(=O)[C@H](CCCNC(=N)N)NC(=O)[C@H](C(C)C)NC(=O)[C@H](CCCNC(=N)N)NC(=O)[C@H](CC(C)C)NC(=O)[C@@H](N)CSSC[C@@H](C(=O)O)NC(=O)[C@H](C(C)C)NC(=O)[C@H](CCCNC(=N)N)NC(=O)[C@H](CC(C)C)NC(=O)[C@H](CCCNC(=N)N)NC(=O)[C@H](C(C)C)NC(=O)[C@H](CCCCN)NC(=O)[C@H](C(C)C)NC(=O)[C@@H]2CSSC[C@H](NC1=O)C(=O)N[C@@H](CC(N)=O)C(=O)N[C@@H](CCCNC(=N)N)C(=O)N[C@@H](CCCNC(=N)N)C(=O)N[C@@H](CCCNC(=N)N)C(=O)N2 [SySA-5.3] (H-CLRVRLCNRRRCVKVRLRVC-OH; disulfide 1-20, 7-12 (inferred); N-terminus and C-terminus assumed) | 128 | 128 | 128 | 8 | 8 | 8 | 1.8 | – | – | – | – | –
2 | CC(C)C[C@@H]1NC(=O)[C@H](CCCNC(=N)N)NC(=O)[C@H](C(C)C)NC(=O)[C@H](CCCNC(=N)N)NC(=O)[C@H](CC(C)C)NC(=O)[C@@H](N)CSSC[C@@H](C(=O)O)NC(=O)[C@H](C(C)C)NC(=O)[C@H](CCCNC(=N)N)NC(=O)[C@H](CC(C)C)NC(=O)[C@H](CCCNC(=N)N)NC(=O)[C@H](C(C)C)NC(=O)[C@H](CCCCN)NC(=O)[C@H](C(C)C)NC(=O)[C@@H]2CSSC[C@H](NC1=O)C(=O)N[C@@H](CCCNC(=N)N)C(=O)N[C@@H](CCCNC(=N)N)C(=O)N[C@@H](CCCNC(=N)N)C(=O)N[C@@H](CCCNC(=N)N)C(=O)N2 [SySA-5.4] (H-CLRVRLCRRRRCVKVRLRVC-OH; disulfide 1-20, 7-12 (inferred); N-terminus and C-terminus assumed) | 64 | 64 | 64 | 4 | 8 | 8 | 2.9 | – | – | – | – | –
3 | CC(C)C[C@@H]1NC(=O)[C@H](CO)NC(=O)[C@H](C(C)C)NC(=O)[C@H](CCCCN)NC(=O)[C@H](C(C)C)NC(=O)[C@@H]2CSSC[C@H](NC(=O)[C@H](CC(C)C)NC(=O)[C@H](CCCNC(=N)N)NC(=O)[C@H](C(C)C)NC(=O)[C@H](CCCNC(=N)N)NC(=O)[C@@H](N)CSSC[C@@H](C(=O)O)NC(=O)[C@H](CCCNC(=N)N)NC1=O)C(=O)N[C@@H](CC(N)=O)C(=O)N[C@@H](CCCNC(=N)N)C(=O)N[C@@H](CCCNC(=N)N)C(=O)N[C@@H](CCCNC(=N)N)C(=O)N2 [SySA-5.8] (H-CRVRLCNRRRCVKVSLRC-OH; disulfide 1-18, 6-11 (inferred); N-terminus and C-terminus assumed) | >128 | >128 | >128 | 8 | 8 | 8 | 0.8 | – | – | – | – | –
4 | CC(C)C[C@@H]1NC(=O)[C@H](CCCNC(=N)N)NC(=O)[C@H](C(C)C)NC(=O)[C@H](CCCCN)NC(=O)[C@H](C(C)C)NC(=O)[C@@H]2CSSC[C@H](NC(=O)[C@H](CC(C)C)NC(=O)[C@H](CCCNC(=N)N)NC(=O)[C@H](C(C)C)NC(=O)[C@H](CCCNC(=N)N)NC(=O)[C@@H](N)CSSC[C@@H](C(=O)O)NC(=O)[C@H](CCCNC(=N)N)NC1=O)C(=O)N[C@@H](CCCNC(=N)N)C(=O)N[C@@H](CCCNC(=N)N)C(=O)N[C@@H](CCCNC(=N)N)C(=O)N[C@@H](CCCNC(=N)N)C(=O)N2 [SySA-5.9] (H-CRVRLCRRRRCVKVRLRC-OH; disulfide 1-18, 6-11 (inferred); N-terminus and C-terminus assumed) | >128 | >128 | >128 | 8 | 8 | 8 | 0.6 | – | – | – | – | –
5 | CC(C)C[C@@H]1NC(=O)[C@H](CCCNC(=N)N)NC(=O)[C@H](C(C)C)NC(=O)[C@H](CCCCN)NC(=O)[C@H](CCCNC(=N)N)NC(=O)[C@H](CCCNC(=N)N)NC(=O)[C@H](CCCNC(=N)N)NC(=O)[C@H](CCCNC(=N)N)NC(=O)[C@H](CCCNC(=N)N)NC(=O)[C@H](CC(C)C)NC(=O)[C@H](CCCNC(=N)N)NC(=O)[C@H](C(C)C)NC(=O)[C@H](CCCNC(=N)N)NC(=O)[C@H](CC(C)C)NC(=O)[C@@H](N)CSSC[C@@H](C(=O)O)NC(=O)[C@H](C(C)C)NC(=O)[C@H](CCCNC(=N)N)NC1=O [SySA-5.12] (H-CLRVRLRRRRRKVRLRVC-OH; disulfide 1-18) | – | – | – | – | – | – | 3.7 | > 128 | 4 | – | – | –
6 | CC(C)C[C@@H]1NC(=O)[C@H](CO)NC(=O)[C@H](C(C)C)NC(=O)[C@@H]2CSSC[C@H](NC(=O)[C@H](CC(C)C)NC(=O)[C@H](CCCNC(=N)N)NC(=O)[C@H](C(C)C)NC(=O)[C@H](CCCNC(=N)N)NC(=O)[C@H](CC(C)C)NC(=O)[C@@H](N)CSSC[C@@H](C(=O)O)NC(=O)[C@H](C(C)C)NC(=O)[C@H](CCCNC(=N)N)NC1=O)C(=O)N[C@@H](CCCNC(=N)N)C(=O)N[C@@H](CCCNC(=N)N)C(=O)NCC(=O)N[C@@H](CCCNC(=N)N)C(=O)N2 [SySA-5.13] (H-CLRVRLCRRGRCVSLRVC-OH; disulfide 1-18, 7-12 (inferred); N-terminus and C-terminus assumed) | >128 | >128 | >128 | 32 | 8 | 16 | 3.2 | – | – | – | – | –
7 | CC(C)C[C@@H]1NC(=O)[C@H](CCCNC(=N)N)NC(=O)[C@H](C(C)C)NC(=O)[C@@H]2CSSC[C@H](NC(=O)[C@H](CC(C)C)NC(=O)[C@H](CCCNC(=N)N)NC(=O)[C@H](C(C)C)NC(=O)[C@H](CCCNC(=N)N)NC(=O)[C@H](CC(C)C)NC(=O)[C@@H](N)CSSC[C@@H](C(=O)O)NC(=O)[C@H](C(C)C)NC(=O)[C@H](CCCNC(=N)N)NC1=O)C(=O)N[C@@H](CCCNC(=N)N)C(=O)N[C@@H](CCCNC(=N)N)C(=O)N[C@@H](CCCNC(=N)N)C(=O)N[C@@H](CCCNC(=N)N)C(=O)N2 [SySA-5.14] (H-CLRVRLCRRRRCVRLRVC-OH; disulfide 1-18, 7-12 (inferred); N-terminus and C-terminus assumed) | 64 | 64 | 64 | 8 | 4 | 4 | 5.6 | – | – | – | – | –
8 | CC(C)C[C@@H]1NC(=O)[C@H](CO)NC(=O)[C@H](C(C)C)NC(=O)[C@H](CCCCN)NC(=O)[C@@H]2CSSC[C@H](NC(=O)[C@H](CC(N)=O)NC(=O)[C@H](CC(C)C)NC(=O)[C@H](CCCNC(=N)N)NC(=O)[C@H](C(C)C)NC(=O)[C@H](CCCNC(=N)N)NC(=O)[C@@H](N)CSSC[C@@H](C(=O)O)NC(=O)[C@H](CCC(N)=O)NC1=O)C(=O)N[C@@H](CCCNC(=N)N)C(=O)N[C@@H](CCCNC(=N)N)C(=O)NCC(=O)N[C@@H](CCCNC(=N)N)C(=O)N2 [SySA-5.15] (H-CRVRLNCRRGRCKVSLQC-OH; disulfide 1-18, 7-12 (inferred); N-terminus and C-terminus assumed) | >128 | >128 | >128 | 16 | 16 | 16 | 1.3 | – | – | – | – | –
9 | CC(C)C[C@@H]1NC(=O)[C@H](CO)NC(=O)[C@H](C(C)C)NC(=O)[C@H](CCCCN)NC(=O)[C@@H]2CSSC[C@H](NC(=O)[C@H](CCCNC(=N)N)NC(=O)[C@H](CC(C)C)NC(=O)[C@H](CCCNC(=N)N)NC(=O)[C@H](C(C)C)NC(=O)[C@H](CCCNC(=N)N)NC(=O)[C@@H](N)CSSC[C@@H](C(=O)O)NC(=O)[C@H](CCCNC(=N)N)NC1=O)C(=O)N[C@@H](CCCNC(=N)N)C(=O)N[C@@H](CCCNC(=N)N)C(=O)NCC(=O)N[C@@H](CCCNC(=N)N)C(=O)N2 [SySA-5.16] (H-CRVRLRCRRGRCKVSLRC-OH; disulfide 1-18, 7-12 (inferred); N-terminus and C-terminus assumed) | >128 | >128 | >128 | 32 | 64 | 32 | 1.3 | – | – | – | – | –
10 | CVTVRVNNRGGRLKVSVEVC (disulfide 1-20 (inferred)) [SySA-56] | – | – | – | – | – | – | – | – | – | > 256 | > 256 | 0.19
11 | CVTVRVNNRGRGLRISLQVC (disulfide 1-20 (inferred)) [SySA-47] | – | – | – | – | – | – | – | – | – | > 256 | > 256 | 0.48
12 | CVTVRVNNRGSRLKVSVEVC (disulfide 1-20 (inferred)) [SySA-18] | – | – | – | – | – | – | – | – | – | > 256 | > 256 | 0.60
